Measured values taken from ChEMBL document CHEMBL1641509, “A PIM₂ analogue suppresses allergic airway disease” (Bioorg Med Chem, 2011).
Calls of active or inactive are those of the source.

Columns and labels:
Format in all cases: functional, organism-based
Settings in all cases: Lung
Mus musculus [1] = test: Antiinflammatory activity against ovalbumin-induced airway allergic C57BL/6 mouse model assessed as decrease of macrophages in bronchoalveolar lavage fluid at 20 ug/mL administered intranasally after 28 days ovalbumin challenge measured on day 32
Mus musculus [2] = test: Antiinflammatory activity against ovalbumin-induced airway allergic C57BL/6 mouse model assessed as reduction of recruitment of eosinophils in bronchoalveolar lavage fluid at 20 ug/mL administered intranasally after 28 days ovalbumin challenge measured on day 32
Mus musculus [3] = test: Antiinflammatory activity against ovalbumin-induced airway allergic C57BL/6 mouse model assessed as decrease of lymphocytes in bronchoalveolar lavage fluid at 20 ug/mL administered intranasally after 28 days ovalbumin challenge measured on day 32

Measured: Activity

CCCCCCCCCCCCCCCCCC(=O)OC[C@H](COP(=O)(O)OC(CO[C@H]1O[C@H](CO)[C@@H](O)[C@H](O)[C@@H]1O)CO[C@H]1O[C@H](CO)[C@@H](O)[C@H](O)[C@@H]1O)OC(=O)CCCCCCCCCCCCCCCCC
active: all assays above
